{"source": "patent US20110054179A1", "about": "“MMP-2 AND/OR MMP-9 INHIBITOR” (priority 2008, published 2011)", "key": {"[1]": {"test_system": "elastase-induced lung injury", "test": "Rabbit model of elastase-induced lung injury: lung histology (alveolar destruction, airway subepithelial fibrotic changes)", "type": "in vivo", "description": "Rabbits were divided into three groups (n=10 animals/group). Two hundred U/kg of porcine pancreatic elastase (PPE) was intratracheally administered into the lungs of the animals in the Vehicle and the Compound A group. The animals in the Sham group was intratracheally administered the same volume of saline instead of PPE. The rabbits were dissected 28 days after PPE administration. The lung tissue of each rabbit was fixed in formalin to prepare histological sections thereof. Two hours prior to the administration of PPE, Vehicle (0.5% tragacanth) or Compound A (10 mg/kg) was orally administered to the rabbits in the Vehicle and the Compound A group, respectively; from the next day, the oral administration of Vehicle or Compound A was continued once a day, 5 days a week until the end of the experiment. The histological sections were immunohistochemically stained using respective antibodies against MMP-2 or MMP-9. Then, under the microscope, the extent of MMP-2 and MMP-9 expression was evaluated, and expressed as a score. The extent of the fibrotic changes in the airway subepithelial region and the extent of alveolar destruction were also observed."}, "[2]": {"test_system": "bleomycin- or asbestos-induced lung fibrosis", "conditions": "bleomycin- or asbestos-induced lung fibrosis animal model; cited from earlier work"}, "[3]": {"conditions": "28 days after PPE, 10 mg/kg oral, vs. Vehicle group"}}}
{"compound": "CCOc1ccc(-c2nc(-c3cccc(C(=O)O)n3)cs2)cc1OCC", "note": "[Compound A, 6-[2-(3,4-diethoxyphenyl)thiazol-4-yl]pyridine-2-carboxylic acid]", "values": [{"measurement": "Alveolar Mean Linear Intercept (Average ± Standard deviation)", "setting": "[1]; 28 days after PPE 200 U/kg intratracheal, 10 mg/kg oral once a day, 5 days a week, p<0.01 vs. Vehicle", "result": "72.8 ± 2.6", "unit": "μm ##"}, {"measurement": "alveolar destruction", "setting": "[1]; [3]", "result": "significantly suppressed"}, {"measurement": "thickening of the airway subepithelial layer resulted from fibrotic changes", "setting": "[1]; [3]", "result": "alleviated"}]}
{"compound": "CNC(=O)[C@H](Cc1c[nH]c2ccccc12)NC(=O)[C@@H](CC(=O)NO)CC(C)C", "note": "[GM6001]", "values": [{"measurement": "increase in MMP activity and the number of white blood cell infiltrated in the bronchoalveolar lavage fluid", "setting": "[2]", "result": "suppressed"}, {"measurement": "lung fibrosis in the histological and biochemical aspects", "setting": "[2]", "result": "suppressed"}]}
